{"source": "patent US10000793B2", "about": "“Method for enumeration of mammalian cell micronuclei, while distinguishing chromatin of dead and dying cells” (priority 2004, dated 2018)", "key": {"L5178Y cells [1]": {"system": "L5178Y cells", "experimental": "(§1) Samples, stored for up to two days at 4° C., were gently tapped to resuspend the particles. Data acquisition and analysis was then accomplished with a single-laser flow cytometer, 488 nm excitation (FACSCalibur, BD Biosciences, San Jose, Calif.). Instrumentation settings and data acquisition/analysis were controlled with CellQuest software v3.3 (BD Biosciences). SYTOX-associated fluorescence emission was collected in the FL1 channel (530/30 band-pass filter), and EMA-associated fluorescence was collected in the FL3 channel (670 long-pass filter). Events were triggered on FL1 fluorescence. The FCM gating strategy that was developed for this micronuclei scoring application required events to meet each of six separate criteria before they were scored as nuclei or micronuclei (see FIGS. 2A-H). The incidence of flow cytometric-scored micronuclei is expressed as frequency percent (no. micronuclei/no. nuclei×100), and are based on the acquisition of 20,000 EMA-negative nuclei per specimen.\nThat is, by displaying the SYTOX-associated signal as fluorescence area (FL1-A), qualitative assessments of cell cycle-related effects were possible. […] Note that while these observations are presented in a qualitative manner, software packages are available which are capable of deconvoluting such histograms to provide quantitative assessment of cell cycle effects."}, "L5178Y cells [2]": {"system": "L5178Y cells", "assay": "In vitro micronucleus test, flow cytometric (EMA/SYTOX) and microscopy scoring, L5178Y cells", "experimental": "L5178Y cells were treated over a range of chemical concentrations in culture medium, one 25 cm^2 flask per concentration. During treatment, cells were at 3×10^5/ml in a volume of 20 ml per flask (this high number of cells facilitated multiple readings per flask). After a 4 hr treatment period, cells were washed one time via centrifugation at 600×g, resuspended in a volume of 40 ml culture medium, and transferred to 75 cm^2 flasks. Cells were re-incubated at 37° C. for 20 additional hrs—the equivalent of two normal doubling times.\nIn this case, cultures (1.5×10^5 cells/ml, 40 ml/flask) were continuously exposed to chemical over a range of concentrations. Cells were harvested after 24 hrs of incubation at 37° C. without recovery.\nAt the time of cell harvest, FDA+ and PI+ cell counts were performed as described supra. […] Cells were collected via centrifugation at approximately 600×g for 5 minutes. Supernatants were aspirated, and cells were resuspended with gentle tapping. […] These tubes were placed in racks and submerged to a depth of approximately 2 cm in crushed ice. A visible light source (60 watt light bulb) was positioned approximately 30 cm above the tubes for 20 minutes.\nAfter the photoactivation period, 800 μl cold buffer solution was added to each sample. From this point forward, exposure of samples to light was minimized with dim lighting and foil. The contents of the tubes were then transferred to 15 ml polypropylene centrifuge tubes, and 8 ml of cold buffer solution was added to each sample. Cells were collected via centrifugation, and supernatants aspirated such that approximately 50 μl of supernatant remained per tube. Cells were gently resuspended with tapping, and were maintained at room temperature until the follow procedures were initiated (within 30 minutes). 1 ml “Lysis Solution 1” was added slowly to each tube (approximately 15 seconds per sample). […] Upon addition of Lysis Solution 1, the tube was immediately vortexed (medium setting) for 5 seconds. These samples were kept at room temperature for 1 hr. At this time, 1 ml “Lysis Solution 2” was injected forcefully into each tube, which were immediately vortexed (medium) for 5 seconds. […] These specimens were maintained at room temperature for 30 minutes. Subsequently, samples were stored at 4° C. until flow cytometric analysis (up to two days following cell harvest/staining/lysis procedures).\nas §1\nApproximately 3.5×10^6 cells per culture were centrifuged and resuspended with 20 μl heat-inactivated fetal bovine serum. 5 μl aliquots were applied to glass slides. Air dried slides were submerged in absolute methanol for 10 minutes and then stored in the dark until staining and analysis. […] An Olympus BH-2 fluorescence microscope was used for micronuclei measurements at 400× magnification. For each treated culture, 2000 mononucleated, non-apoptotic, non-necrotic cells were analyzed for the presence of micronuclei (1000 cells×2 slides per culture)."}, "CHO-K1 cells": {"system": "CHO-K1 cells", "assay": "In vitro micronucleus test, flow cytometric and microscopy scoring, CHO-K1 cells", "assay_type": "cell-based, Chinese hamster", "details": "4 hr treatment, 20 hr recovery, 0-40 μg/ml, FIG. 8", "experimental": "On the day before treatment, CHO-K1 cells were harvested and counted, and their density was adjusted to 6×10^4/ml in culture medium. This cell suspension was added to 75 cm^2 flasks (20 ml per flask; one flask per exposure group). After incubating for approximately 16 to 24 hrs at 37° C., spent culture medium was replaced with 20 ml fresh, pre-warmed medium per flask. Methyl methanesulfonate was added from 1000× strength stock solutions for final concentrations of 0, 10, 20, 30, and 40 μg/ml, at which time cultures where reincubated at 37° C. After a 4 hr treatment period, culture medium was aspirated, cells were rinsed one time with an isotonic salt solution, and then 20 ml fresh, pre-warmed culture medium was added to each flask. These cultures were reincubated for a 20 hr recovery period. At the time of cell harvest, 2.5 ml typsin/EDTA solution per flask was used to detach cells from culture vessels. Cells were collected via centrifugation and responded in culture medium.\n(§2) Events were triggered on FL1 fluorescence.\n5 μl aliquots were applied to glass slides."}, "L5178Y cells [3]": {"system": "L5178Y cells", "experimental": "Once L5178Y or CHO-K1 cells were collected as described above, cytotoxicity measurements were performed as follows: 0.5 ml of each culture was added to flow cytometry tubes containing fluorescein diacetate (“FDA”) (0.075 μg/ml), propidium iodide (“PI”) (25 μg/ml), and 2.5 μm Carmine 580/620 microspheres (Molecular Probes, Eugene, Oreg.). The concentration of these “counting beads” was determined with a hemacytometer. […] Relative survival was then calculated as follows: The number of FDA+ cells in each chemical treatment culture was expressed as a percentage of the number of FDA+ cells in the concurrent solvent control culture.", "remark": "listed apart in the source"}, "L5178Y cells [4]": {"system": "L5178Y cells", "assay": "Cytotoxicity, % EMA-positive events by flow cytometry", "assay_type": "cell-based", "source_text": "as §2\nIn addition to supplying genotoxicity and cell cycle information, these flow cytometric analyses were capable of concurrently providing a measure of cytotoxicity. Specifically, the frequency of EMA-positive events is a statistic that relates to membrane integrity. […] This statistic could be useful for helping to identify chemical concentrations that are too cytotoxic for reliable genotoxicity assessment."}}, "note": "Structures can show the parent of a compound that is named as a salt. Where two headings read alike, the source gives them in different places."}
{"smiles": "CC[C@]1(O)C[C@@H]2CN(CCc3c([nH]c4ccccc34)[C@@](C(=O)OC)(c3cc4c(cc3OC)N(C)[C@H]3[C@@](O)(C(=O)OC)[C@H](OC(C)=O)[C@]5(CC)C=CCN6CC[C@]43[C@@H]65)C2)C1", "note": "[Vinblastine sulfate]", "values": [{"measurement": "Cell Cycle Effect", "setting": "L5178Y cells [1]", "result": "+++"}, {"measurement": "MN Induction (≥3-fold)", "setting": "L5178Y cells [2]", "result": "Yes"}, {"measurement": "micronucleus response, continuous 24 hr exposure versus short-term treatment", "setting": "L5178Y cells [2]", "result": "greater"}]}
{"smiles": "COS(C)(=O)=O", "note": "[Methyl methanesulfonate]", "values": [{"measurement": "micronucleus frequency", "setting": "CHO-K1 cells", "result": "dose-related increase"}, {"measurement": "Cell Cycle Effect", "setting": "L5178Y cells [1]", "result": "+++"}, {"measurement": "MN Induction (≥3-fold)", "setting": "L5178Y cells [2]", "result": "Yes"}]}
{"smiles": "O=P1(N(CCCl)CCCl)NCCCO1", "note": "(centres unmarked) [Cyclophosphamide monohydrate]", "values": [{"measurement": "MN Induction (≥3-fold)", "setting": "L5178Y cells [2]; L5178Y cells, treatment/recovery 4/20 hrs, benzo[a]pyrene and cyclophosphamide with 10% v/v metabolic activation system", "result": "Yes"}]}
{"smiles": "NC(=O)NO", "note": "[Hydroxyurea]", "values": [{"measurement": "Cell Cycle Effect", "setting": "L5178Y cells [1]", "result": "+++"}, {"measurement": "MN Induction (≥3-fold)", "setting": "L5178Y cells [2]", "result": "Yes"}]}
{"smiles": "C[C@@H]1C[C@H]2[C@@H]3CCC4=CC(=O)C=C[C@]4(C)[C@@]3(F)[C@@H](O)C[C@]2(C)[C@@]1(O)C(=O)CO", "note": "[Dexamethasone]", "values": [{"measurement": "cell survival", "setting": "L5178Y cells [3]", "result": "significantly affected cell survival"}, {"measurement": "Cell Cycle Effect", "setting": "L5178Y cells [1]", "result": "−"}, {"measurement": "MN Induction (≥3-fold)", "setting": "L5178Y cells [2]", "result": "No"}, {"measurement": "changes in % micronuclei", "setting": "L5178Y cells [2]", "result": "Nil to slight changes"}, {"measurement": "increase in % micronuclei relative to solvent control", "setting": "L5178Y cells [2]; mouse", "result": "less than 3 fold"}]}
{"smiles": "OC[C@H]1O[C@@](CO)(O[C@H]2O[C@H](CO)[C@@H](O)[C@H](O)[C@H]2O)[C@@H](O)[C@@H]1O", "note": "[Sucrose]", "values": [{"measurement": "% EMA-positive events", "setting": "L5178Y cells [4]", "result": "non-cytotoxic"}, {"measurement": "Cell Cycle Effect", "setting": "L5178Y cells [1]", "result": "−"}, {"measurement": "micronucleus-induction", "setting": "L5178Y cells [2]; L5178Y cells, continuous-treatment exposure (24 hr)", "result": "not evident"}]}
